From article PMC9092428, “Towards identification of protein–protein interaction stabilizers via inhibitory peptide-fragment hybrids using templated fragment ligation” (RSC Chemical Biology, 2022) come the findings set out here.

Assay type in all cases: binding
Experiment [1] addresses T1, 14-3-3η (Homo sapiens, UniProt Q04917).
T1 construct: full length proteins were concentrated by centrifugation; His tag (pProEx HTb vector) (N); made in house; host or cells: E. coli BL21(DE3)
T1 sequence (Q04917 1-246): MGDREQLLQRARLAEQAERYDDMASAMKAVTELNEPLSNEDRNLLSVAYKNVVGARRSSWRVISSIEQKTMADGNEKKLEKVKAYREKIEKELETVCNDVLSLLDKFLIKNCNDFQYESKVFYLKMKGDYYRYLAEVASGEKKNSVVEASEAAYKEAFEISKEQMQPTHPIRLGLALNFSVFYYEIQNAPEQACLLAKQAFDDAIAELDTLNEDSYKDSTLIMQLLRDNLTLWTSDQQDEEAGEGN
Kind of experiment: Fluorescence anisotropy (FA) competition assay against tracer hDMX361–374^pSer367*. As to conditions: Fig. 2b experiment; hydrazide equilibrated with 5 eq. aldehyde, serially diluted; 50 nM hDMX361–374^pSer367*, 1 μM 14-3-3η, 50 mM NH4OAc, 10 mM aniline, 1 mM DTT, pH 6.5. As for the experimental part:
A fluorescence anisotropy (FA) competition assay was subsequently carried out using conditions previously found suitable for acylhydrazone formation (pH 6.5, 50 mM NH4OAc, 10 mM aniline) with added DTT (1 mM) to supress disulfide formation. hDMX361–369^pSer367Gly-hydrazide was used to compete with a tracer peptide: hDMX361–374^pSer367* for binding to 14-3-3η (Fig S2, ESI ^†). […] Initial attempts to screen in cocktails, established the aldehydes had no affect on their own (Fig. S3, ESI ^†). We then performed an assay where each aldehyde was screened individually with hDMX361–369^pSer367Gly-hydrazide. A decrease in anisotropy can be attributed to a particular hydrazone product, avoiding the additional step of product identification e.g. by HRMS, and, combines the equilibration step for hydrazone formation with 14-3-3η screening (Fig. 2a). […] To confirm the single-concentration results, a competition assay was performed (Fig. 2b). hDMX361–369^pSer367Gly-hydrazide was equilibrated with 5 equivalents of each aldehyde (product formation confirmed by LC-MS, see Fig. S4, ESI ^†), and serially diluted against the tracer peptide (hDMX361–374^pSer367*) and 14-3-3η protein.
Fig. 2 Dynamic ligation screening based on hDMX361–369^pSer367Gly-hydrazide (a) Anisotropy values of individually screened hydrazones (relative to buffer, zero activity negative control in grey), hDMX361–374^pSer367 (blue) and hDMX361–369^pSer367Gly-hydrazide (red) as positive controls with hits (hDMX361–369^pSer367Gly-hydrazone-FC45 and hDMX361–369^pSer367Gly-hydrazone-SIG17) highlighted in orange boxes (10 μM acetylated hydrazide peptide mixed with 5 eq. of aldehyde, 1 μM 14-3-3η, 50 nM hDMX361–374^pSer367*, 50 mM NH4OAc, 10 mM aniline and 1 mM DTT) (b) competition FA curves for hydrazones taken forward as hits (50 nM hDMX361–374^pSer367*, 1 μM 14-3-3η in 50 mM NH4OAc, 10 mM aniline and 1 mM DTT).
Fig. 3 Dynamic ligation screening based on hDMX361–370^pSer367Gly-hydrazide (a) anisotropy values of individually screened hydrazones (relative to buffer, zero activity negative control in grey), hDMX361–374^pSer367 (blue) and hDMX361–370^pSer367Gly-hydrazide (red) as positive controls with hits highlighted in black boxes (10 μM acetylated hydrazide peptide mixed with 5 eq. of aldehyde, 1 μM 14-3-3η, 50 nM hDMX361–374^pSer367*, 50 mM NH4OAc, 10 mM aniline and 1 mM DTT) (b) representative competition FA curves for hydrazones taken forwards as hits (50 nM hDMX361–374^pSer367*, 1 μM 14-3-3η in 50 mM NH4OAc, 10 mM aniline and 1 mM DTT). […]
(§1) Screening was performed using fluorescence anisotropy competition assay, in 50 mM NH4Ac pH 6.5 buffer containing 10 mM aniline, 1 mM DTT. […]
In general terms: Polarisation of emitted light reports the rotation of a fluorescent probe.

Experiment [2] concerns the target T1, 14-3-3η. Kind of experiment: Dynamic ligation screen, FA competition at single concentration. The conditions noted are these: 10 μM acetylated hydrazide peptide with 5 eq. aldehyde, 24 h room temperature, 1 μM 14-3-3η, 50 nM hDMX361–374^pSer367*, 50 mM NH4OAc, 10 mM aniline, 1 mM DTT; duplicates. As for the experimental part: A fluorescence anisotropy (FA) competition assay was subsequently carried out using conditions previously found suitable for acylhydrazone formation (pH 6.5, 50 mM NH4OAc, 10 mM aniline) with added DTT (1 mM) to supress disulfide formation. hDMX361–369^pSer367Gly-hydrazide was used to compete with a tracer peptide: hDMX361–374^pSer367* for binding to 14-3-3η (Fig S2, ESI ^†). […] Initial attempts to screen in cocktails, established the aldehydes had no affect on their own (Fig. S3, ESI ^†). We then performed an assay where each aldehyde was screened individually with hDMX361–369^pSer367Gly-hydrazide. A decrease in anisotropy can be attributed to a particular hydrazone product, avoiding the additional step of product identification e.g. by HRMS, and, combines the equilibration step for hydrazone formation with 14-3-3η screening (Fig. 2a). […]
Figure S3. […] Aldehydes were assessed as […]
as §1
Screening was performed using 10 μM acetylated hydrazide peptide mixed with 5 eq. of aldehyde, 1 μM 14-3-3η,. […] After 24 hours, hDMX tracer peptide was added to a concentration of 50 nM to the experiment wells or equal amount of buffers was added to the blanks and the plate was read immediately. […]

Experiment [3] has as its target T1, 14-3-3η. Kind of experiment: FA direct titration of tracer peptide. The conditions noted are these: tracer 50 nM, 10 mM HEPES, 150 mM NaCl, 0.1% Tween 20, 0.1% BSA, pH 7.4; triplicates; read-out: Kd (14-3-3 affinity by FA). As for the experimental part: To explore the effect of non-linked fragments, 5 commercially available fragments with similarity to the reduced aldehyde form of COOH4, FC50 and FC32; analogues bearing alcohol or methyl groups in place of the aldehyde (Fig. 3c) were assessed. For consistency a modified tracer peptide was used (hDMX361–370^pSer367Gly* i.e. analogous to the screening peptide but bearing FAM-Ahx). […] Stabilization of the peptide/14-3-3η interaction was observed as the anisotropy increased at the highest fragment concentration, consistent with millimolar affinities (Fig. 3c).
Figure S7. Direct titration of peptide for analysis of fragment stabilizing effects ( hDMX361- […]
(1 picture or pasted object on this page, not shown here)
Peptides were cleaved and side-chain deprotected using ‘Reagent K’ […]
Direct titration assay: All assays were performed in 384 well plates (each experiment was run in triplicates) and data were collected by Perkin Elmer EnVision 2013 plate reader with excitation at 480 nm (30 nm bandwidth), polarised dichroic mirror at 505 nm and emission at 535 nm (40 nm bandwidth, S and P polarised). […] A ½ fold dilution series was performed in the titration, with plates read after 30 min, 4 h and 20-24 h. […]
Collected data were processed in Microsoft Excel using the equations bellow. Total intensity I and anisotropy r were calculated using Equations 1 and 2 for each well. […]

Square brackets hold non-standard residues; d marks the D form. Peptide text beside a SMILES is read from it. * marks the point of attachment. 5FAM = O=C1OC2(c3ccc(O)cc3Oc3cc(O)ccc32)c2ccc(C(=O)*)cc21; pS = N[C@@H](COP(=O)(O)O)C(=O)O; Ahx = NCCCCCC(=O)O

On to `CC[C@H](C)[C@H](NC(=O)[C@@H](NC(=O)[C@H](CCCNC(=N)N)NC(=O)[C@H](CCCNC(=N)N)NC(=O)[C@H](CS)NC(=O)[C@H](CC(=O)O)NC(C)=O)[C@@H](C)O)C(=O)N[C@@H](COP(=O)(O)O)C(=O)N[C@@H](C)C(=O)N1CCC[C@H]1C(=O)NCC(=O)N/N=C/c1scc(Br)c1Br` [hDMX361–369^pSer367Gly-hydrazone-SIG17] (HELM PEPTIDE1{[ac].D.C.R.R.T.I.[O=C([C@H](COP(=O)(O)O)N[*:1])[*:2]].A.P.G.[Brc1csc(/C=N/N[*:1])c1Br]}$$$$V2.0), for which the IC50 in experiment [1] was determined as 13.7 ± 0.5 µM. Moreover, in experiment [2], the “Anisotropy of individually screened hydrazones relative to controls (hit call)” value was “hits”. As for `CC[C@H](C)[C@H](NC(=O)[C@@H](NC(=O)[C@H](CCCNC(=N)N)NC(=O)[C@H](CCCNC(=N)N)NC(=O)[C@H](CS)NC(=O)[C@H](CC(=O)O)NC(=O)CCCCCNC(=O)c1ccc2c(c1)C(=O)OC21c2ccc(O)cc2Oc2cc(O)ccc21)[C@@H](C)O)C(=O)N[C@@H](COP(=O)(O)O)C(=O)N[C@@H](C)C(=O)N1CCC[C@H]1C(=O)N[C@H](C(=O)NCC(N)=O)C(C)C` [hDMX361–370^pSer367Gly*] ({5FAM-Ahx}-DCRRTI[pS]APVG-NH2), the Kd in experiment [3] came to 0.172 ± 0.0093 µM.

As usually defined, the IC50 is the concentration at which inhibition is half-maximal. A low value points to higher potency. The Kd is a measure of binding affinity in units of concentration.
